We go through eight compounds from article PMC9455338, “Design, synthesis, and biological evaluation of potent FAK-degrading PROTACs” (Journal of Enzyme Inhibition and Medicinal Chemistry, 2022).

The target in experiment [1] is T1, FAK (Homo sapiens, UniProt Q05397).
T1 construct: gene PTK2
In words: HTRF KinEASE-TK kinase assay, purified FAK (Carna). On the technique in general: In TR-FRET formats the signal depends on donor and acceptor labels being close together.

Experiment [2] addresses T1, FAK. In words: biochemical. The arrangement: HTRF KinEASE-TK kinase assay with purified FAK, inhibition of substrate phosphorylation. Conditions: for inhibition at 0.1 µM: read-out: FAK inhibition (%)^a / 0.1 μM; for inhibition at 0.5 µM: read-out: FAK inhibition (%)^a / 0.5 μM. As for the experimental part:
The FAK kinase assay was performed using the HTRF® KinEASE™-TK kit (Cisbio Bioassays, France) in white 384-well small volume plates with a total working volume of 20 μL. Purified FAK enzyme was purchased from Carna Biosciences (Japan). Compounds were diluted step-by-step from a concentrated stock of 8 mM in 100% DMSO and with serial kinase reaction buffer dilutions. The IC50 measurements were performed in replicates. […] The assay plates were incubated at 30 °C for 50 min and reactions were terminated by adding 10 μL of mix 2 (Sa-XL665 + TK-Antibody-Cryptate). After a final incubation (60 min at room temperature), HTRF signals were obtained by reading plates using an Infinite® F500 microplate reader (Tecan, Switzerland). […] For IC50 measurements, values were normalised and fitted with Graphpad prism 8.3.0.

Experiment [3] has as its target T1, FAK. In words: HTRF kinase assay, % inhibition at […]. Type of experiment: biochemical.

Each structure is given as a SMILES string.

T1 sequence (Q05397 2-1052): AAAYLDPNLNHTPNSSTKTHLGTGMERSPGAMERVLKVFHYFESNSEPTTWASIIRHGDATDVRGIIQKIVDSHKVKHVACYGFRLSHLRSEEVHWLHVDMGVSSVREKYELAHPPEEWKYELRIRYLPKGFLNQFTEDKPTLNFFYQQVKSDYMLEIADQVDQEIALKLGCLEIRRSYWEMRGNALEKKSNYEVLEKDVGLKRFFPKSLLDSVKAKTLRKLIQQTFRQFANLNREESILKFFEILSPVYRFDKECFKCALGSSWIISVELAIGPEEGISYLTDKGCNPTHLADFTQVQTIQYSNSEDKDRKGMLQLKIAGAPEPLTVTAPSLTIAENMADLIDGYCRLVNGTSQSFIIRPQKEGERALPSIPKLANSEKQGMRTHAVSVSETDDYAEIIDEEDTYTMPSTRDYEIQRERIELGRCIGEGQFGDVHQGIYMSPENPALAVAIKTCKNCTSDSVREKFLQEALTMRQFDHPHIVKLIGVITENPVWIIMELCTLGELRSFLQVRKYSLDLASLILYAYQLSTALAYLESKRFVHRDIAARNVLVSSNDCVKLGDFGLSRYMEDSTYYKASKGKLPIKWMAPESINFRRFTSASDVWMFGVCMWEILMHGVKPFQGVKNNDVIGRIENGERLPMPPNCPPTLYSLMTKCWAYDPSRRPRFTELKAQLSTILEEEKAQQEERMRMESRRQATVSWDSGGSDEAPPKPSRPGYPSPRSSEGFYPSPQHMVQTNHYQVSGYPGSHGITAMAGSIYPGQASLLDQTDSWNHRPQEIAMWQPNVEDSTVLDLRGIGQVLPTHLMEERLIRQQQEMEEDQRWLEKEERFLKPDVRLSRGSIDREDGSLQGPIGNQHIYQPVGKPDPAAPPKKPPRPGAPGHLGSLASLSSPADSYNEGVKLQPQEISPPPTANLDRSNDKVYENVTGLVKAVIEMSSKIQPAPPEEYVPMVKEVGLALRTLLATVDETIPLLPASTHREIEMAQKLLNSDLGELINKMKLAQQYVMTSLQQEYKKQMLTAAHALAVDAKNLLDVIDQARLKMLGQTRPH

On to `CN(c1ccccc1CNc1nc(Nc2ccc(N3CCN(CCOCCOCCNC(=O)CNc4cccc5c4C(=O)N(C4CCC(=O)NC4=O)C5=O)CC3)cc2)ncc1C(F)(F)F)S(C)(=O)=O` (stereo not shown) [A1, 2-{[2–(2,6-Dioxopiperidin-3-yl)-1,3-dioxoisoindolin-4-yl]amino}-N-(2-{2-[2–(4-{4-[(4-{[2-(N-methylmethylsulfonamido)benzyl]amino}-5-(trifluoromethyl)pyrimidin-2-yl)amino]phenyl}piperazin-1-yl)ethoxy]ethoxy}ethyl)acetamide], for which it took 22.3 nM to reach half-maximal inhibition in experiment [1] (IC50). In addition, in experiment [2], the inhibition at 0.1 µM is 94.9% and the inhibition at 0.5 µM is 98%.

For `CN(c1ccccc1CNc1nc(Nc2ccc(N3CCN(CCCOCCC(=O)NCCNc4cccc5c4C(=O)N(C4CCC(=O)NC4=O)C5=O)CC3)cc2)ncc1C(F)(F)F)S(C)(=O)=O` (stereo not shown) [A2, N-(2-{[2–(2,6-dioxopiperidin-3-yl)-1,3-dioxoisoindolin-4-yl]amino}ethyl)-3-[3–(4-{4-[(4-{[2-(N-methylmethylsulfonamido)benzyl]amino}-5-(trifluoromethyl)pyrimidin-2-yl)amino]phenyl}piperazin-1-yl)propoxy]propanamide], the inhibition at 0.5 µM in experiment [2] amounted to 98.8%. In addition, the inhibition at 0.1 µM in experiment [3] was found to be 89%.

In the case of `CN(c1ccccc1CNc1nc(Nc2ccc(N3CCN(CCCCC(=O)Nc4cccc5c4C(=O)N(C4CCC(=O)NC4=O)C5=O)CC3)cc2)ncc1C(F)(F)F)S(C)(=O)=O` (stereo not shown) [A5], in experiment [2], the inhibition at 0.5 µM came out at 98%. The compound also gave an inhibition at 0.1 µM in experiment [3] of 91.2%.

In experiment [1], `CN(c1ccccc1CNc1nc(Nc2ccc(N3CCN(CCCCCC(=O)Nc4cccc5c4C(=O)N(C4CCC(=O)NC4=O)C5=O)CC3)cc2)ncc1C(F)(F)F)S(C)(=O)=O` (stereo not shown) [A6, N-(2–(2,6-Dioxopiperidin-3-yl)-1,3-dioxoisoindol-4-yl)-6–(4-{4-[(4-{[2-(N-Methylmethylsulfonamido)benzyl]amino}-5-(trifluoromethyl)pyrimidin-2-yl)amino]phenyl}piperazin-1-yl)hexanamide] returned an IC50 of 24.4 nM. Moreover, in experiment [2], the inhibition at 0.1 µM worked out at 88.2% and the inhibition at 0.5 µM was found to be 96.8%.

Consider `CN(c1ccccc1CNc1nc(Nc2ccc(N3CCN(CCCCCCC(=O)Nc4cccc5c4C(=O)N(C4CCC(=O)NC4=O)C5=O)CC3)cc2)ncc1C(F)(F)F)S(C)(=O)=O` (stereo not shown) [A7, N-[2–(2,6-Dioxopiperidin-3-yl)-1,3-dioxoisoindol-4-yl]-7–(4-{4-[(4-{[2-(N-Methylmethylsulfonamido)benzyl]amino}-5-(trifluoromethyl)pyrimidin-2-yl)amino]phenyl}piperazin-1-yl)heptamide], for which the inhibition at 0.5 µM in experiment [2] came to 95.4%. This compound also registered an inhibition at 0.1 µM in experiment [3] of 87.5%.

In the case of `CN(c1ccccc1CNc1nc(Nc2ccc(N3CCN(CCCCC(=O)NCCNc4cccc5c4C(=O)N(C4CCC(=O)NC4=O)C5=O)CC3)cc2)ncc1C(F)(F)F)S(C)(=O)=O` (stereo not shown) [A11, N-(2-{[2–(2,6-Dioxopiperidin-3-yl)-1,3-dioxoisoindolin-4-yl]amino}ethyl)-5–(4 –{4-[(4-{[2-(N-Methylmethylsulfonamido)benzyl]amino}-5-(trifluoromethyl)pyrimidin-2-yl)amino]phenyl}piperazine-1-yl)pentanamide], the inhibition at 0.5 µM in experiment [2] was 98.6%. The inhibition at 0.1 µM in experiment [3] is 93.5%.

For the compound `CN(c1ccccc1CNc1nc(Nc2ccc(N3CCN(CCCCCC(=O)NCCNc4cccc5c4C(=O)N(C4CCC(=O)NC4=O)C5=O)CC3)cc2)ncc1C(F)(F)F)S(C)(=O)=O` (stereo not shown) [A12, N-(2-{[2–(2,6-Dioxopiperidin-3-yl)-1,3-dioxoisoindolin-4-yl]amino}ethyl)-6–(4-{4-[(4-{[2-(N-methylmethylsulfonamido)benzyl]amino}-5-(trifluoromethyl)pyrimidin-2-yl)amino]phenyl}piperazine-1-yl)hexanamide], the inhibition at 0.5 µM in experiment [2] was determined as 98%. In experiment [3], this compound displayed an inhibition at 0.1 µM of 86.1%.

As to `CN(c1ccccc1CNc1nc(Nc2ccc(N3CCN(CCCCCCC(=O)NCCNc4cccc5c4C(=O)N(C4CCC(=O)NC4=O)C5=O)CC3)cc2)ncc1C(F)(F)F)S(C)(=O)=O` (stereo not shown) [A13, N-(2-{[2–(2,6-Dioxopiperidin-3-yl)-1,3-dioxoisoindolin-4-yl]amino}ethyl)-7–(4 -{4-[(4-{[2-(N-methylmethylsulfonamido)benzyl]amino}-5-(trifluoromethyl)pyrimidin-2-yl)amino]phenyl}piperazine-1-yl)heptamide], the midpoint of inhibition in experiment [1], the IC50, lay at 26.4 nM. Moreover, in experiment [2], the inhibition at 0.1 µM came out at 84.4% and the inhibition at 0.5 µM worked out at 96.9%.

By IC50 is commonly meant the concentration needed to halve the response being measured. Low values mean greater potency in that assay, high ones weaker potency in that assay.
